From paper PMC12040169 (PLOS Biology, 2025)

Assay: in vitro
Details: human, hela cells, % viability

SMILES | viability at 28.5 h, 10 µM [%]
O=C1CNC(=O)C2(C/C=C/C[C@H]3COCC[C@H]3N1)CCN(C(=O)Cc1cccnc1)CC2 [CBK292068] | 103
Cn1cc(C(=O)N2CCC3(C/C=C/C[C@H]4COCC[C@H]4NC(=O)CNC3=O)CC2)cn1 [CBK292069] | 103
Cc1ccn(CCC(=O)N2CCC3(C/C=C/C[C@H]4COCC[C@@H]4NC(=O)CNC3=O)CC2)n1 [CBK292070] | 86
Cc1noc(C)c1CC(=O)N1CCC2(C/C=C/C[C@H]3COCC[C@@H]3NC(=O)CNC2=O)CC1 [CBK292071] | 92.3
O=C1CNC(=O)C2(C/C=C/C[C@H]3COCC[C@H]3N1)CCN(CCOc1ccccc1)CC2 [CBK292077] | 107
CN(CC(=O)N1CCC[C@@H]2[C@H]1C/C=C/Cc1ccccc1OCC(=O)N2C)Cc1ccccn1 [CBK292078] | 91.5
CN1C(=O)COc2ccccc2C/C=C/C[C@@H]2[C@H]1CCCN2C(=O)CNS(C)(=O)=O [CBK292079] | 87.7
O=C1NC/C=C/CC2(CCN(c3ncccn3)CC2)C(=O)NCCOc2ccccc21 [CBK292081] | 90.3
O=C1COc2ccccc2C/C=C/C[C@H]2CN(C(=O)Cn3ncc4ccccc4c3=O)CC[C@H]2N1 [CBK292084] | 85.6
Cc1ncoc1C(=O)N1CCC2(C/C=C/C[C@H]3COCC[C@H]3NC(=O)CNC2=O)CC1 [CBK292086] | 89.3
Cc1nc(C(=O)N2CCC3(CCCCOc4ccccc4C(=O)NCCNC3=O)CC2)co1 [CBK292089] | 103
CC(=O)N1CC[C@H]2NC(=O)CNC(=O)C3(CCCC[C@H]2C1)CCN(C(=O)/C=C/c1ccccc1)CC3 [CBK292092] | 105
CN1C(=O)COc2ccccc2C/C=C/C[C@@H]2[C@H]1CCCN2C(=O)Cn1ccc(=O)[nH]c1=O [CBK292093] | 102
O=C1NC/C=C/CC2(CCN(Cc3ccccc3)CC2)C(=O)NCCOc2ccccc21 [CBK292097] | 103
CN1C(=O)COc2ccccc2CCCC[C@@H]2[C@H]1CCCN2CC(N)=O [CBK292098] | 105
Cc1ccc(=O)n(CC(=O)N2CCC[C@@H]3NC(=O)c4ccccc4OCCCCC[C@@H]32)n1 [CBK292100] | 94
CC(=O)N1CC[C@H]2NC(=O)CNC(=O)C3(CCCC[C@H]2C1)CCN(C(=O)COc1ccccc1)CC3 [CBK292101] | 100
CNC(=O)CN1CCC[C@@H]2NC(=O)c3ccccc3OCCCCC[C@@H]21 [CBK292104] | 104
O=C1NCCNC(=O)C2(CCCCOc3ccccc31)CCN(C(=O)c1ccnnc1)CC2 [CBK292105] | 107
CC(=O)N1CCC2(C/C=C/C[C@H]3CN(C(=O)C4CCC4)CC[C@H]3NC(=O)CNC2=O)CC1 [CBK292108] | 105
CN1C(=O)COc2ccccc2CCCC[C@@H]2[C@H]1CCCN2C(=O)c1cc(=O)[nH]c(=O)[nH]1 [CBK292110] | 83.3
CN1C(=O)COc2ccccc2CCCC[C@@H]2[C@H]1CCCN2CCO [CBK292112] | 103
Cc1nc(CC(=O)N2CCC[C@@H]3NC(=O)c4ccccc4OCCCCC[C@@H]32)cs1 [CBK292113] | 102
CC(=O)N1CCC2(CCCC[C@H]3CN(C(=O)CCC(C)C)CC[C@@H]3NC(=O)CNC2=O)CC1 [CBK292124] | 103

SMILES | viability at 28.5 h, 10 µM [%]
O=C1NCCNC(=O)C2(C/C=C/COc3ccccc31)CCCN(Cc1cscn1)C2 (stereo not shown) [CBK292125] | 92.2
O=C1COc2ccccc2C/C=C/CC2(CCN(Cc3cncnc3)CC2)CN1 [CBK292130] | 112
CC(=O)N1CCC2(CCCC[C@H]3CN(C(C)C)CC[C@@H]3NC(=O)CNC2=O)CC1 [CBK292133] | 102
COCCN1CC[C@@H]2[C@@H](C/C=C/Cc3ccccc3OCC(=O)N2C)C1 [CBK292134] | 98
O=C1COc2ccccc2C/C=C/CC2(CCCN(C(=O)CCN3CCCC3)C2)CN1 (stereo not shown) [CBK292136] | 102
CC(=O)N1CC[C@H]2NC(=O)CNC(=O)C3(CCCC[C@H]2C1)CCN(C(=O)CCn1ccnc1)CC3 [CBK292138] | 111
O=C1N[C@@H]2CCN(CC(=O)N3CCCC3)C[C@@H]2CCCCCOc2ccccc21 [CBK292141] | 107
O=C1CNC(=O)C2(C/C=C/C[C@H]3COCC[C@H]3N1)CCN(C(=O)C1CCOCC1)CC2 [CBK292143] | 84.9
CN1C(=O)c2ccccc2OCCCCC[C@H]2[C@@H]1CCCN2C(=O)CN1CCN(CCO)CC1 [CBK292144] | 99
O=C1COc2ccccc2C/C=C/C[C@H]2CN(C(=O)CN3CCN(CCO)CC3)CC[C@H]2N1 [CBK292146] | 110
CC(=O)N1CCC2(C/C=C/C[C@H]3CN(CC(N)=O)CC[C@H]3NC(=O)CNC2=O)CC1 [CBK292148] | 97.6
O=C1COc2ccccc2C(=O)N[C@@H]2CCOC[C@@H]2C/C=C/C[C@H]2[C@H](CCCN2CCO)N1 [CBK292149] | 106
CN1C(=O)COc2ccccc2CCCC[C@@H]2[C@H]1CCCN2C(=O)CCn1ccnc1 [CBK292150] | 96.6
O=C1COc2ccccc2C/C=C/CC2(CCN(C(=O)Cc3cccnc3)CC2)C(=O)NCCN1 [CBK292153] | 110
Cc1cc(C(=O)N2CCC3(C/C=C/CCOc4ccccc4C(=O)NCCCNC3=O)CC2)no1 [CBK292155] | 92.6
O=C1CNC(=O)C2(C/C=C/C[C@H]3COCC[C@H]3N1)CCN(Cc1ccc(F)cn1)CC2 [CBK292160] | 110
O=C1CNC(=O)C2(C/C=C/C[C@H]3COCC[C@H]3N1)CCN(C(=O)c1ccc(=O)[nH]n1)CC2 [CBK292161] | 110
CC(=O)N1CCC2(CCCC[C@H]3CN(CC(=O)N(C)C)CC[C@@H]3NC(=O)CNC2=O)CC1 [CBK292163] | 94.6
CC(=O)N1CCC[C@H]2NC(=O)CNC(=O)C3(C/C=C/C[C@H]21)CCN(Cc1cc[nH]n1)CC3 [CBK292164] | 103
O=C1COc2ccccc2CCCCC2(CCCNC2)CN1 (stereo not shown) [CBK292166] | 90.5
CC(=O)N1CCC2(C/C=C/C[C@H]3CN(Cc4nccs4)CC[C@H]3NC(=O)CNC2=O)CC1 [CBK292169] | 111
COCCOCC(=O)N1CCC2(C/C=C/C[C@H]3COCC[C@H]3NC(=O)CNC2=O)CC1 [CBK292170] | 105
CC(=O)N1CC[C@H]2NC(=O)CNC(=O)C3(CCCC[C@H]2C1)CCN(C(=O)c1ccc(C)nc1)CC3 [CBK292172] | 94.7
CC(=O)N1CCC[C@H]2NC(=O)CNC(=O)C3(C/C=C/C[C@H]21)CCN(C(=O)CCC(=O)O)CC3 [CBK292174] | 85

SMILES | viability at 28.5 h, 10 µM [%]
CN1CCOc2ccccc2C(=O)NC/C=C/CC2(CCCN(Cc3cc[nH]n3)C2)C1=O (stereo not shown) [CBK292175] | 103
CC(=O)N1CCC[C@H]2NC(=O)CNC(=O)C3(C/C=C/C[C@H]21)CCN(C(=O)c1cc(C)no1)CC3 [CBK292176] | 104
Cn1ccc(C(=O)N2CCCC3(C/C=C/Cc4ccccc4OCC(=O)NC3)C2)cc1=O (stereo not shown) [CBK292179] | 107
CN1C(=O)COc2ccccc2CCCC[C@@H]2[C@H]1CCCN2C(=O)CCCn1cncn1 [CBK292182] | 95.3
O=C1NC[C@@H](Cc2ccccc2)NC(=O)C2(C/C=C/COc3ccccc31)CCN(C(=O)CN1CCCC1)CC2 [CBK292184] | 103
CC(=O)N[C@H](C(=O)N1CC[C@@H]2NC(=O)[C@@H](Cc3ccccc3)NC(=O)C3(C/C=C/C[C@@H]2C1)CCOCC3)[C@@H](C)O [CBK292186] | 96.9
Cc1ncsc1C(=O)N1CCC2(C/C=C/C[C@H]3COCC[C@H]3NC(=O)[C@@H](CC(C)C)NC2=O)CC1 [CBK292187] | 107
CN1CC(=O)N2CCOC(C2)c2cccc(n2)NC(=O)C/C=C/CC2(CCN(c3ncccn3)CC2)C1=O (stereo not shown) [CBK292188] | 95.2
CC(=O)N[C@@H](Cc1ccccc1)C(=O)N1CC[C@H]2NC(=O)[C@H](Cc3ccccc3)NC(=O)C3(C/C=C/C[C@@H]2C1)CCOCC3 [CBK292190] | 82.2
CC(C)C[C@@H]1NC(=O)C2(C/C=C/C[C@@H]3COCC[C@@H]3NC1=O)CCN(C(=O)[C@H](CO)NC(=O)OCc1ccccc1)CC2 [CBK292191] | 102
O=C1NC[C@@H](Cc2ccccc2)NC(=O)C2(C/C=C/COc3ccccc31)CCN(Cc1ncccc1F)CC2 [CBK292193] | 111
CN1CC(=O)N2CCOC(C2)c2cccc(n2)NC(=O)C/C=C/CC2(CCN(Cc3ncc[nH]3)CC2)C1=O (stereo not shown) [CBK292196] | 103
CC(=O)N[C@H](C(=O)N1CCC2(C/C=C/C[C@H]3COCC[C@H]3NC(=O)[C@@H](CC(C)C)NC2=O)CC1)[C@@H](C)OC(C)(C)C [CBK292197] | 90.7
CC(=O)N[C@@H](C(=O)N1CC[C@@H]2NC(=O)[C@@H](Cc3ccccc3)NC(=O)C3(C/C=C/C[C@H]2C1)CCOCC3)C(C)C [CBK292198] | 97.1
NC(=O)CC[C@H](N)C(=O)N1CC[C@@H]2NC(=O)[C@H](Cc3ccccc3)NC(=O)C3(C/C=C/C[C@@H]2C1)CCOCC3 [CBK292199] | 109
CC(=O)N[C@H](C(=O)N1CC[C@H]2NC(=O)[C@@H](Cc3ccccc3)NC(=O)C3(C/C=C/C[C@H]2C1)CCOCC3)[C@@H](C)OC(C)(C)C [CBK292203] | 103
CC(=O)N1C[C@H](O)C[C@H]1C(=O)N1CC[C@H]2NC(=O)[C@H](Cc3ccccc3)NC(=O)C3(C/C=C/C[C@H]2C1)CCOCC3 [CBK292204] | 88.7
CC(=O)N[C@H](Cc1c[nH]c2ccccc12)C(=O)N1CC[C@H]2NC(=O)[C@H](Cc3ccccc3)NC(=O)C3(C/C=C/C[C@H]2C1)CCOCC3 [CBK292205] | 89.9
CC(=O)N[C@H](CC(N)=O)C(=O)N1CCC2(C/C=C/C[C@@H]3COCC[C@@H]3NC(=O)[C@@H](CC(C)C)NC2=O)CC1 [CBK292207] | 106
CC(=O)Nc1ccc(OC(=O)c2ccc(Br)o2)cc1 [CBK293917] | 112
O=[N+]([O-])c1ccc(/C=N/c2cccc(-c3nc4ccccc4s3)c2)cc1 [CBK293918] | 91.4
O=C1CCCCCC1C(Nc1ccc2ccccc2c1)c1cccnc1 (stereo not shown) [CBK293919] | 86.4
